pKd: −log10 of the molar value.
Molecular target: T1, CdgL (c-di-GMP receptor interacting with LysR; YajQ homologue, Le2538) (Lysobacter enzymogenes, UniProt A0A0S2DCE3)
T1 sequence (A0A0S2DCE3 1-160): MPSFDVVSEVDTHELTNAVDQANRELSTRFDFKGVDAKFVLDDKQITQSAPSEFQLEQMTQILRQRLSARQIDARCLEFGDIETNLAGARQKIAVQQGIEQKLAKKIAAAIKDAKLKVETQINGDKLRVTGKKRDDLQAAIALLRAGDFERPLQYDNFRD
Test: microscale thermophoresis
Format: binding

Q: `Nc1nc2c(ncn2[C@@H]2O[C@@H]3CO[P@](=O)(O)O[C@H]4[C@@H](O)[C@H](n5cnc6c(=O)[nH]c(N)nc65)O[C@@H]4CO[P@](=O)(O)O[C@H]3[C@H]2O)c(=O)[nH]1` [c-di-GMP] was tested. Which pKd did it give?
A: Its pKd is 4.84.

Source: publication PMC6988422 (Molecular Plant Pathology, 2019)
